# Laboratory results reported in US9746463B2 (THE TRUSTEES OF COLUMBIA UNIVERSITY IN THE CITY OF NEW YORK, priority 2006, dated 2017).
# Ends that are not written are not given here.
# Key:
# [1] = Osteocalcin subcutaneous infusion in wt mice: insulin sensitivity after insulin injection; type: in vivo, mouse; settings: wild type mice, 0.3 or 3 ng/hour subcutaneously for 18 days, then insulin injection, 0-120 minutes, vs PBS
# Description: FIG. 12. […] Wt mice were infused subcutaneously with indicated doses of recombinant osteocalcin or PBS for 18 days before receiving a single injection of insulin. Blood glucose was measured thereafter at indicated times.
# (§1) Metabolic studies. For glucose tolerance test (GTT), glucose (2 g/kg body weight (BW)) was injected intraperitoneally (IP) after an overnight fast and blood glucose was monitored using blood glucose strips and the Accu-Check glucometer (Roche) at indicated times. For glucose stimulated insulin secretion test (GSIS), glucose (3 g/kg BW) was injected IP after an overnight fast; sera were collected from tails and insulin measured as described (Mauvais-Jarvis et al., 2000). For insulin tolerance test (ITT), mice were fasted for six hours, injected IP with insulin (0.2 U/kg BW) and blood glucose levels were measured at indicated times as described (Mauvais-Jarvis et al., 2002). ITT data are presented as percentage of initial blood glucose concentration. […] Streptozotocin ([…] single injection, Sigma) was injected IP and blood glucose measured as described above every 2 days thereafter. […] Food intake was measured using metabolic cages as the daily change of food weight. Energy expenditure was measured using metabolic cages connected to a calorimeter (Columbus Instrument). Heat values (Kcal/Hr) were recorded over 2 days and reported to each mouse BW. […]
# [2] = Osteocalcin subcutaneous infusion in GTG-induced obesity; type: in vivo, mouse
# Description: FIG. 14. […] Wt mice were injected with gold thioglucose (GTG) or vehicle to induce hyperphagia and obesity. Two weeks later they were implanted with subcutaneous osmotic pumps infusing […] of recombinant osteocalcin or PBS for 28 days before. Body weight gain was recorded thereafter at indicated days.
# The effect of uncarboxylated osteocalcin on GTG-induced obesity was investigated (FIG. 14). Wild type mice were injected with gold thioglucose (GTG) to induce hyperphagia and obesity or vehicle. Two weeks later they were implanted with subcutaneous osmotic pumps infusing 1 ng/hr of recombinant uncarboxylated osteocalcin or PBS for 28 days. […] At 28 days, body weight was reduced by about 15% with uncarboxylated osteocalcin treatment.
# [3] = Osteocalcin subcutaneous infusion in wt mice: glucose tolerance after glucose injection; type: in vivo, mouse; settings: wild type mice, 0.3 or 3 ng/hour subcutaneously for 14 days, then glucose injection, 120 minutes, vs PBS
# Description: FIG. 11. […] Wt mice were infused subcutaneously with indicated doses of recombinant osteocalcin or PBS for 14 days before receiving a single injection of glucose. Blood glucose was measured thereafter at indicated times.
# as §1
# [4] = Osteocalcin subcutaneous infusion in wt mice: glycemia; type: in vivo, mouse; settings: wild type mice, 0.3, 1 and 3 ng/hour subcutaneously for 28 days, vs PBS
# Description: FIG. 10. […] Indicated doses of recombinant osteocalcin or PBS were infused subcutaneously for 28 days in wt mice. Blood glucose was measured at indicated days.
# An in vivo experiment was conducted in which the effect of undercarboxylated osteocalcin on glycemia was monitored. Wild type mice were infused with 3 different amounts of mouse recombinant undercarboxylated osteocalcin or placebo (PBS) subcutaneously for 28 days (0.3, 1 and 3 ng/hour).
# [5] = tested on: Insulin and Cyclin D1 expression in WT islets; test: Insulin and Cyclin D1 expression in islets cultured with uncarboxylated osteocalcin; type: cell-based, mouse; settings: 0.3 ng/ml (FIG. 7L)
# Description: FIG. 7A-O. Esp−/− Mice Are a Model of Increased Osteocalcin Bioactivity. (FIGS. 7A-G) Comparison between 6-week-old WT, Esp−/, Ocn+/−, and Esp−/−; Ocn+/− mice. (FIG. 7A) Blood glucose levels. (FIG. 7B) Serum insulin levels. (FIG. 7C) Serum adiponectin levels. (FIG. 7D) GTT. (FIG. 7E) ITT. (FIG. 7F) GSIS test. (FIG. 7G) Quantification of the number of Ki67-immunoreactive cells in pancreatic islets. […] (FIG. 7K) Expression of Adiponectin in WT adipocytes cultured in presence of vehicle or of 1 ng/ml of commercially available carboxylated osteocalcin (Immunotopics) or bacterially produced uncarboxylated osteocalcin. (FIG. 7L) Expression of Insulin and Cyclin D1 in WT islets cultured in presence of 0.3 ng/ml of bacterially produced uncarboxylated osteocalcin or vehicle. (FIG. 7M) Metabolic parameters and total serum osteocalcin levels in control and obese patients. (FIG. 7N-O) Quantification of carboxylated osteocalcin (HA-bound osteocalcin) in control and obese patients. In (FIGS. 7A)-(C) and (FIGS. G)-(L): *p<0.05 versus WT (Student's t test); in (FIG. D)-(F), °p<0.05 versus WT and *p % 0.001 versus WT (ANOVA followed by post hoc analysis).
# Mouse islets and adipocytes isolation. Islets were isolated using a Histopaque gradient (1077, Sigma). […]
# [6] = listed as recombinant osteocalcin
substance,measurement,setting,value
"uncarboxylated osteocalcin: Recombinant mouse osteocalcin bacterially produced as GST fusion, cleaved with thrombin; completely undercarboxylated at all three sites (YLGASVPSPDPLEPTREQCELNPACDELSDQYGLKTAYKRIYGITI; not fully specified; ends and bridges not checked; UniProt P86546 50-95, looked up)",insulin sensitivity,[1],increased
same,insulin sensitivity,[1]; [6],increases insulin sensitivity
same,body weight gain,"[2]; GTG-injected wild type mice, 1 ng/hr by osmotic pump for 28 days, from 7 days on, vs PBS",significantly reduced
same,reduction of body weight,"[2]; GTG-injected wild type mice, 1 ng/hr, at 28 days",about 15%
same,GTG-induced obesity,"[2]; wt mice, infusion for 28 days (figure legend)",prevents GTG-induced obesity
same,glucose tolerance,[3],increased glucose tolerance
same,glucose tolerance,[3]; [6],increases glucose tolerance
same,glycemia (blood glucose),[4]; [6],decreases glycemia
same,glycemia (blood glucose),[4]; listed as undercarboxylated osteocalcin,decreased glycemia
same,"expression of Cyclin D1, marker of beta-cell proliferation",[5],induced
same,insulin expression,[5],induced insulin expression
